The record followed here is publication PMC11377560, “Structural insights into the molecular effects of the anthelmintics monepantel and betaine on the Caenorhabditis elegans acetylcholine receptor ACR-23” (The EMBO Journal, 2024).

The target of test [1] is T1, ACR-23 (acetylcholine receptor like-23) (Caenorhabditis elegans, UniProt G5EG88).
T1 construct: homo-pentamer; M3-M4 loop (residues Lys 386 to Gln 437) replaced with bRIL, C-terminal strep tag (cryo-EM); ACR-23 with C-terminal GFP in HEK293 cells (EC50)
The test can be described thus: cryo-EM structure ([…] Å, betaine co-bound); EC50 by whole-cell patch clamp in HEK293 cells. It counts as cell-based. For orientation: Patch clamp records ionic current or voltage across a cell membrane.

Test [2] deals with T1, ACR-23 (acetylcholine receptor like-23). The test is described as follows: cryo-EM structure ([…] Å); EC50 by whole-cell patch clamp in HEK293 cells. In kind it is cell-based.
For test [3], the target named is engineered ACR-23 (acetylcholine receptor like-23), M3-M4 loop replaced with bRIL (Caenorhabditis elegans | not stated) (UniProt G5EG88). The test is described as follows: cryo-EM structure; single particle cryo-EM of purified ACR-23 in DDM/CHS, 20 mM Tris pH 8.0, 150 mM NaCl; apo, with 1.5 mM betaine, or with 1.5 mM betaine and 5 mM monepantel; homo-pentamer in all three states.

T1 sequence (G5EG88 20-545): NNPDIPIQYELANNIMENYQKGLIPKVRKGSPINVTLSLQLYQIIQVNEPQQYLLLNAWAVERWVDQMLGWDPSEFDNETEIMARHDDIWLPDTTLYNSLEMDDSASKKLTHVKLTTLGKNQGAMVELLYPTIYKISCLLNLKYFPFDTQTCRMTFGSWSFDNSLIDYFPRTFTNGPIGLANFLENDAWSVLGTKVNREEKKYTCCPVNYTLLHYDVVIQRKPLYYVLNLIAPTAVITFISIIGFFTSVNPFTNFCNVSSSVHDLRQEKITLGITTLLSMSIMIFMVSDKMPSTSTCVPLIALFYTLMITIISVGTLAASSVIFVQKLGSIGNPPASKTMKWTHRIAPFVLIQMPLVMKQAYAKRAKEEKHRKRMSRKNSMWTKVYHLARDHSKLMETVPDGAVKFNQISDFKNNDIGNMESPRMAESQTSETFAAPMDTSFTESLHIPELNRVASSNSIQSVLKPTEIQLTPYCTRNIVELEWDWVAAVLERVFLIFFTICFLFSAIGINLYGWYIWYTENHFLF

In turn, `CC(C#N)(COc1cc(C#N)ccc1C(F)(F)F)NC(=O)c1ccc(SC(F)(F)F)cc1` (racemic) [monepantel] came in with an EC50 in test [1] of 2.13 µM. In test [2], `C[N+](C)(C)CC(=O)O` [betaine] yielded a concentration for a half-maximal effect (EC50) of roughly 34.4 µM. Compound “engineered ACR-23 (acetylcholine receptor like-23), M3-M4 loop replaced with bRIL (from UniProt G5EG88 20-385; G5EG88 438-545)” returned a stoichiometry N in test [3] of 5.

As a reminder, the EC50 is the concentration that produces a half-maximal response. In general, stoichiometry N refers to a count of units in the complex or per binding partner.
